Data as given in paper PMC9738107, “Targeting of the ELR+CXCL/CXCR1/2 Pathway Is a Relevant Strategy for the Treatment of Paediatric Medulloblastomas” (Cells, 2022).

Columns and labels:
Type in all cases: cell-based, human
[1] = system: DR1 cells; experiment: Cell death assay (PI staining), radiation-resistant cells; conditions: DR1 compared to astrocytes
Description: (§1) As with naïve cells, we determined the IC50 for DR1, DR2, […] and their SI compared to astrocytes.
(§2) Figure 8 C29 is efficient on radioresistant MB cell lines. (A) Cell death after 48 h of treatment with control (DMSO, CT) or C29 1, 2.5, or 5 µM on radiation-resistant cells (RR) and normal cells (N), n = 3. Statistics were performed using the one-way method ANOVA. * p < 0.05, ** p < 0.01, *** p < 0.001. For this figure, DR1 = D1, DR2 = D2, HR1 = H1, HR2 = H2, and C8D1A = C8. (B) Proliferation of DR1/DR2 (A) and HR1/HR2 (B) radio-resistant cells after 1 µM C29 treatment or control (DMSO), n = 3. (C) Clonogenic assay on DR1, DR2 (n = 3) and HR1, HR2 (n = 3) cells after treatment with control (DMSO) or C29 (1 µM or 2.5 µM). (D) Cell migration through the Boyden chamber of DR1 and DR2 cells specifically attracted by 200 ng/mL CXCL8. Cells were treated with control (DMSO) or C29 (1 and 2.5 µM). Results are expressed as percentage of control (n = 3). Scale = 1000 μm. Statistics were performed using Student t-test for 2 comparisons only or ANOVA test for multiple comparisons. * p < 0.05, ** p < 0.01, *** p < 0.001. […]
(§3) each month by using PlasmoTest Kit (#10L07‐MM, InvivoGen, Toulouse, France). Daoy and ONS‐76 belong to the Shh genetic subgroup, D341‐Med and HD‐MB03 to group 3.
(§4) Mouse cerebellar astrocytes C8D1A (CRL ‐2541) were purchased from the American Tissue Culture Collection ATCC. These cells were cultured in DMEM (1X) + GlutaMAX (Invitrogen) medium supplemented with 10% FBS (D. Dutscher). Cells were cultured at 37°C in a 5% CO2 incubator. […]
(§5) After 2 days, cells were treated with control (DMSO) or C29
(§6) (1, 2∙5, 5μM) for 48 hours. After 48 hours, the medium was recovered, and the adherent cells were dissociated and added to the supernatant. Cell death was detected by PE chan‐ nel using FACS Cytoflex (Beckman) immediately after labelling the cells with 1ug/ml pro‐ pidium iodide (Miltenyi Biotec). Data were presented with the percentage of cell death after subtracting the percentage of untreated and unlabelled dead cells.
(§7) Migration in Boyden chambers
(§8) The cells were deprived of serum overnight. 50000 cells were plated in triplicate in serum‐free medium into the upper compartment of pre‐wetted inserts (24‐well plate fit, translucent PET membrane, 8∙0 μ m pore size, Falcon, Thermo Fisher). Medium containing 10% serum or CXCL8 (200ng/ml, Peprotech) was added to the lower compartment. After 24 hours, migrated cells were fixed with 3% paraformaldehyde and stained with Crystal […]
Violet. […]
(§9) 5000 cells were plated in 48 multi‐well plates coated with agarose 0∙8%. […]

[2] = system: DR2 cells; experiment: as above; conditions: DR2 compared to astrocytes
Description: as §1, §2, §3, §4, §5, §6, §7, §8
Violet. […]
as §9

[3] = system: HR1 cells; experiment: as above; conditions: HR1 compared to astrocytes
Description: as §1, §2, §3, §4, §5, §6, §7, §8
Violet. […]
as §9

[4] = system: HR2 cells; experiment: as above; conditions: HR2 compared to astrocytes
Description: as §1, §2, §3, §4, §5, §6, §7, §8
Violet. […]
as §9

[5] = system: Daoy cells; experiment: Clonogenic assay; conditions: 1 µM
Description: (§10) Figure 4 C29 reduces proliferation, migration, and invasion of naïve MB cells. (A) Proliferation of Daoy, ONS-76, HD-MB03, and D341Med wild-type cells after treatment with 1 μM C29 or the control (DMSO), n = 3. (B) Clonogenic assay on Daoy (n = 4), ONS-76 (n = 3) and HD -MB03 (n = 5) cells after treatment with control (DMSO) or C29 (1 μM or 2.5 μM). Scale = 500 μm. (C) Cell migration through the Boyden chamber of Daoy and ONS-76 cells specifically attracted by 200 ng/mL CXCL8. Results are expressed as percentage of control (DMSO) (n = 3). Scale = 1000 μm. (D) Spheroid invasion using 3D culture cell assays on Daoy (n = 4) and ONS-76 cells (n = 3) treated with control (DMSO) or C29 at a concentration of 1 μM on day 0, 1, and 2. Results are expressed as percentage of day 0, n = 4. Scale = 500 μm. Statistics were performed using Student t-test for 2 comparisons only or ANOVA test for multiple comparisons. * p < 0.05, ** p < 0.01, *** p < 0.001. […]
(§11) each month by using PlasmoTest Kit (#10L07‐MM, InvivoGen, Toulouse, France). Daoy and ONS‐76 belong to the Shh genetic subgroup, D341‐Med and HD‐MB03 to group 3. […]
(§12) 150 Daoy/DR1/DR2/ ONS ‐ 76 and 300 HD ‐ MB03/HR1/HR2 cells were seeded in trip‐ licate in 6‐well plates in the presence or absence of treatment (1 or 2∙5μM […] or DMSO as control). On day 9 (Daoy/ONS‐76) and day 11 (HD ‐MB03), cells were fixed in ice‐cold absolute ethanol (Sigma) for 20 min, washed with PBS and then stained with Giemsa 50% for 30 min. The number of clones was quantified using ImageJ software. We only considered clones containing more than 50 cells. […]
Violet. […]
(§13) 5000 cells were plated in 48 multi‐well plates coated with agarose 0∙8%. After two days, spheroids were mixed with 100μl of matrigel mix (200μl of matrigel (Corning Mat‐ rigel Matrix, Fontenay‐sous‐Bois, France), 100 μl collagen I (8 mg/ml, Corning), 80 μl HEPES 1M and 320μl respective medium) in 12 multi‐well plates. […]

[6] = system: HD-MB03 cells; experiment: Clonogenic assay; conditions: HD-MB03, 1 µM
Description: as §10, §11, §12
Violet. […]
as §13

[7] = system: ONS-76 cells; experiment: Clonogenic assay
Description: as §10, §11, §12
Violet. […]
as §13

Question: For `O=C(Nc1cccc(Cl)c1)Nc1nc2ccc([N+](=O)[O-])cc2s1` [C29, 1-(3-chlorophenyl)-3-(6-nitrobenzo[d]thiazol-2-yl) urea], which “Selectivity index (SI)” value [1] is on record?
Answer: 3.9

Question: And the “Selectivity index (SI)” value [2]?
Answer: 3.9

Question: What about the “Selectivity index (SI)” value [3] of the same compound?
Answer: 7.7

Question: What about the “Selectivity index (SI)” value [4] of the same compound?
Answer: 2.8

Question: And the Clone formation [5]?
Answer: inhibited clone formation

Question: What about the Clone formation [6] of the same compound?
Answer: inhibited clone formation

Question: And the Clone formation ([7]; ONS-76, 1 µM)?
Answer: some clones were maintained

Question: And the Clone formation ([7]; ONS-76, 2.5 µM)?
Answer: disappeared completely
